Measurements from ChEMBL document CHEMBL4800729 (2021).

Columns and labels:
[1] = target: Adenosine receptor A1 (Homo sapiens) (UniProt P30542); conditions: Compound concentration 10.0 uM
[2] = target: 5-hydroxytryptamine receptor 2A (Homo sapiens) (UniProt P28223); conditions: Compound concentration 10.0 uM
[3] = target: Muscarinic acetylcholine receptor M3 (Homo sapiens) (UniProt P20309); conditions: Compound concentration 10.0 uM
[4] = target: Cyclin-dependent kinase 5/CDK5 activator 1 (Homo sapiens) (UniProt Q00535+Q15078); test: CDK5/p35(h) Millipore kinase panel; format: protein-complex assay; conditions: Compound concentration 1.0 uM
[5] = target: Glucocorticoid receptor (Homo sapiens) (UniProt P04150); conditions: Compound concentration 10.0 uM
[6] = target: Serine/threonine-protein kinase D3 (Homo sapiens) (UniProt O94806); test: PKD3(h) Millipore kinase panel; conditions: Compound concentration 1.0 uM
[7] = target: Serine/threonine-protein kinase 3 (Homo sapiens) (UniProt Q13188); test: MST2(h) Millipore kinase panel; conditions: Compound concentration 1.0 uM
[8] = target: MAP/microtubule affinity-regulating kinase 3 (Homo sapiens) (UniProt P27448); test: MARK3(h) Millipore kinase panel; conditions: Compound concentration 1.0 uM
[9] = target: CDK18/Cyclin Y (Homo sapiens) (UniProt Q07002+Q8ND76); test: CDK18/cyclinY(h) Millipore kinase panel; format: protein-complex assay; conditions: Compound concentration 1.0 uM
[10] = target: PAS domain-containing serine/threonine-protein kinase (Homo sapiens) (UniProt Q96RG2); test: PASK(h) Millipore kinase panel; conditions: Compound concentration 1.0 uM
[11] = target: Kappa-type opioid receptor (Homo sapiens) (UniProt P41145); conditions: Compound concentration 10.0 uM
[12] = target: Muscarinic acetylcholine receptor M4 (Homo sapiens) (UniProt P08173); conditions: Compound concentration 10.0 uM
[13] = target: Mast/stem cell growth factor receptor Kit (Homo sapiens) (UniProt P10721); test: cKit(h) Millipore kinase panel; conditions: Compound concentration 1.0 uM
[14] = target: Activin receptor type-2A (Homo sapiens) (UniProt P27037); test: ACTR2(h) Millipore kinase panel; conditions: Compound concentration 1.0 uM
Homo sapiens = organism: Homo sapiens; test: Cdc7/cyclinB(h) Millipore kinase panel; conditions: Compound concentration 1.0 uM
[15] = target: T1, 5-hydroxytryptamine receptor 1A (Homo sapiens) (UniProt P08908); conditions: Compound concentration 10.0 uM
T1 sequence (whole entry): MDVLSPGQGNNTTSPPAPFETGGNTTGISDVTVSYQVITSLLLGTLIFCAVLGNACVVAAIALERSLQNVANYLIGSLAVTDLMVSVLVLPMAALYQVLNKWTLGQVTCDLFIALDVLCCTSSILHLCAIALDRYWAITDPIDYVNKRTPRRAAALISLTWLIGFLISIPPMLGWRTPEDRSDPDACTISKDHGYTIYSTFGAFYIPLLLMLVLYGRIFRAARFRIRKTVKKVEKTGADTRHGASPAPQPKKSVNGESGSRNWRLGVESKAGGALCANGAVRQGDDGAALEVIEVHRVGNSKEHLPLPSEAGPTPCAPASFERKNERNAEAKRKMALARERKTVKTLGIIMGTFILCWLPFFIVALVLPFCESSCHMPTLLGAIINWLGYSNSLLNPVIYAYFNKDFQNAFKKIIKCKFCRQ

[16] = target: Sodium-dependent noradrenaline transporter (Homo sapiens) (UniProt P23975); conditions: Compound concentration 10.0 uM
[17] = target: Vascular endothelial growth factor receptor 1 (Homo sapiens) (UniProt P17948); test: Flt1(h) Millipore kinase panel; conditions: Compound concentration 1.0 uM
[18] = target: Calcium/calmodulin-dependent protein kinase kinase 2 (Homo sapiens) (UniProt Q96RR4); test: CaMKK2(h) Millipore kinase panel; conditions: Compound concentration 1.0 uM
[19] = target: cAMP-dependent protein kinase catalytic subunit alpha (Homo sapiens) (UniProt P17612); test: PKA(h) Millipore kinase panel; conditions: Compound concentration 1.0 uM
[20] = target: cGMP-dependent protein kinase 2 (Homo sapiens) (UniProt Q13237); test: PRKG2(h) Millipore kinase panel; conditions: Compound concentration 1.0 uM
[21] = target: Myosin light chain kinase (Homo sapiens) (UniProt Q32MK0); test: MLCK(h) Millipore kinase panel; conditions: Compound concentration 1.0 uM
[22] = target: T2, Alpha-2B adrenergic receptor (Homo sapiens) (UniProt P18089); conditions: Compound concentration 10.0 uM
T2 sequence (whole entry): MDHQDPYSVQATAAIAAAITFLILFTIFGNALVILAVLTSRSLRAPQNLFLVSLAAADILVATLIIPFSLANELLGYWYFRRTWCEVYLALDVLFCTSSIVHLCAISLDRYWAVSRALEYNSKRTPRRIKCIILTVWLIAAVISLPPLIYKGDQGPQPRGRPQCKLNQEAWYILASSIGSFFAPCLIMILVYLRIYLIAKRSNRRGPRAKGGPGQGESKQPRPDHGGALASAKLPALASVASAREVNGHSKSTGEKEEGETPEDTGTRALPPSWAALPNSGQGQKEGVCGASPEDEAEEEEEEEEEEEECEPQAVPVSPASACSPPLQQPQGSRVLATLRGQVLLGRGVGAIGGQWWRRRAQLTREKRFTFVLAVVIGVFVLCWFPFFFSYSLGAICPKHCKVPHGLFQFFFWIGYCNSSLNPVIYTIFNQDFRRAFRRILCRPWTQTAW

[23] = target: D(1B) dopamine receptor (Homo sapiens) (UniProt P21918); conditions: Compound concentration 10.0 uM
[24] = target: Type-2 angiotensin II receptor (Homo sapiens) (UniProt P50052); conditions: Compound concentration 10.0 uM
[25] = target: Alpha-2A adrenergic receptor (Homo sapiens) (UniProt P08913); conditions: Compound concentration 10.0 uM
[26] = target: Inhibitor of nuclear factor kappa-B kinase subunit epsilon (Homo sapiens) (UniProt Q14164); test: IKKepsilon(h Millipore kinase panel; conditions: Compound concentration 1.0 uM
[27] = target: Protein kinase C beta type (Homo sapiens) (UniProt P05771); test: PKCbetaII(h) Millipore kinase panel; conditions: Compound concentration 1.0 uM
[28] = target: Protein kinase C alpha type (Homo sapiens) (UniProt P17252); test: PKCalpha(h) Millipore kinase panel; conditions: Compound concentration 1.0 uM
[29] = target: Serine/threonine-protein kinase 4 (Homo sapiens) (UniProt Q13043); test: MST1(h) Millipore kinase panel; conditions: Compound concentration 1.0 uM
[30] = target: BDNF/NT-3 growth factors receptor (Homo sapiens) (UniProt Q16620); test: TrkB(h) Millipore kinase panel; conditions: Compound concentration 1.0 uM
[31] = target: Ephrin type-A receptor 1 (Homo sapiens) (UniProt P21709); test: EphA1(h) Millipore kinase panel; conditions: Compound concentration 1.0 uM
[32] = target: Tyrosine-protein kinase HCK (Homo sapiens) (UniProt P08631); test: Hck(h) Millipore kinase panel; conditions: Compound concentration 1.0 uM
[33] = target: Calcium/calmodulin-dependent protein kinase type II subunit beta (Homo sapiens) (UniProt Q13554); test: CaMKIIbeta(h) Millipore kinase panel; conditions: Compound concentration 1.0 uM
[34] = target: Leucine-rich repeat serine/threonine-protein kinase 2 (Homo sapiens) (UniProt Q5S007); test: LRRK2(h) Millipore kinase panel; conditions: Compound concentration 1.0 uM
[35] = target: Cyclin-dependent kinase-like 3 (Homo sapiens) (UniProt Q8IVW4); test: CDKL3(h) Millipore kinase panel; conditions: Compound concentration 1.0 uM

Measured: inhibition

CC[C@@H](Nc1c(C#N)c(-c2ccc(-c3cccc(C)c3F)cc2)nc2cnccc12)C(=O)O [BAY-091]
inactive: [1] 13% | [2] 19% | [3] 0% | [4] -0.03% | [5] 32% | [6] 12.6% | [7] 0.08% | [8] -4.67% | [9] 10.6% | [10] 11.1% | [11] 0.48% | [12] 6% | [13] 22.3% | [14] 1.17% | Homo sapiens 3.59% | [15] 27% | [16] 25% | [17] 56.8% | [18] 11.3% | [19] 11% | [20] 12.7% | [21] -5.27% | [22] -2% | [23] 15.8% | [24] 11% | [25] 5.7% | [26] 10.2% | [27] -1.59% | [28] 16.2% | [29] 20.6% | [30] 2.08% | [31] 9.2% | [32] 0.45% | [33] 8.65% | [34] 12.9% | [35] 8.18%
